Results on nine compounds are retold here after US10765754B2, “Compositions and methods related to inhibition of respiratory syncytial virus entry” (priority 2015, dated 2020).

By Kd is commonly meant the equilibrium constant for the complex coming apart. Higher therefore signals a looser complex.

Starred links: 1 amine or outer side, 2 acyl side, 3 side chain; linkers in the order of their positions; H or OH if unused. Positions of bridges follow the written chain, without caps; N, C: chain ends. Non-standard residues stand in square brackets, D forms with d. Residues, ends and D or L forms follow the SMILES beside them. Chains are numbered I, II in the order given. X1 = NCCOCCOCCOCCOCCOCCOCCOCCOCCOCCOCCOCCOCCOCCOCCOCCOCCOCCOCCOCCOCCOCCOCCOCCOCCOCCOCCOCCOCCC(=O)NC(CCC(=O)[*:1])(CCC(=O)[*:2])CCC(=O)[*:3]; PEG6 = NCCOCCOCCOCCOCCOCCOCCC(=O)O

For one assay, the system named is HIV. Conditions: standard viral passaging, escalating inhibitor; cited from earlier work.
Assay [1] has as its system RSVA-IZN45 (SEQ ID NO: 34). Conditions: Table 8 Result column. From the text:
AC-K-(PEG4)DDG-RSVP32 (SEQ ID NO:142) is an affinity matured RSV N-trimer binder identified from phage display and represents an optimized binding solution from a disulfide constrained CX10C (disulfide constrained 10-mer) library based on the 20 natural amino acids. […] Using the co-crystal structure of RSVP32 (SEQ ID NO:31) and RSVA-IZN21 (SEQ ID NO:34), a molecular-modeling suite (ICM-Pro, MolSoft LLC) was used to model various natural and non-natural amino acid substitutions and calculate binding energies. The following parameters were used to calculate binding energy: electrostatic boundary element energy, H-bonds, solvation energy estimated as surface tension, and side-chain entropy.

The target of another assay is IZN45. The experiment in a line: SPR binding to IZN45 N-trimer mimic, subtype not stated. Also on record: species or system RSV. From the text: (§1) IZN45 N-trimer mimic comprises the IZ domain, a highly soluble, designed coiled-coil that helps solubilize the N-trimer, along with the C-terminal (bottom) 45 residues of the RSV N-trimer. IZN45 encompasses the full ordered portion of the N-trimer except for three N-terminal residues (removed to maintain a continuous heptad repeat with the IZ domain). The interactions between 35-residue RSV C-peptides, T108 and T118 (Lambert et al., 1996, Proc. Natl. Acad. Sci. USA 93:2186-2191), and IZN45 was examined by surface plasmon resonance (SPR). SPR is a gold standard assay to measure the kinetics and affinity of biological interactions. […] The Biotinylated L-form of RSV target IZN45 was captured onto one lane of a NeutrAvidin coated SPR chip. A mutant version of IZN45 containing four mutated residues along the N-trimer groove designed to disrupt binding (IZN45 Full Mut, negative control) was captured onto a separate lane of the NeutrAvidin chip. T118, corresponding to the C-terminal portion of the RSV F ectodomain, which is known to interact with the RSV N-trimer groove, was flowed over the various surfaces. […] The surfaces were regenerated with a detergent (0.1% SDS) after each injection of analyte. Various concentrations of T118 were measured in duplicate or triplicate injections. D-peptide interactions with IZN45 and IZN45-Full Mut surfaces were also measured using this method.
(§2) Peptides from the ‘winning’ phage clones from each library were synthesized as D-peptides. If solubility of the peptides was limited, N- or C-terminal charged residue(s) (e.g., lysine) were attached as necessary as previously described for HIV peptides in Eckert et al., 1999, Cell 99:103-15, incorporated by reference in its entirety. Binding affinity and kinetics of the D-peptide inhibitors to the IZN45 and IZN45 mutants was characterized by SPR (Biacore 3000), using methods as described in Welch et al., 2007, Proc. Natl. Acad. Sci. USA 104:16828-33, incorporated by reference in its entirety.
Background: SPR reads the build-up and loss of mass on a sensor chip optically.

For another assay, the target named is T1, RSV-B/IZN45 (Human respiratory syncytial virus B, UniProt O36634).
T1 construct: N-trimer Mimics Synthesized; made in house; host or cells: chemical peptide synthesis
The experiment in a line: biochemical. The conditions noted are these: RSV-B/IZN45. In kind it is binding.
Source text: as §1, §2

In another assay the target is T2, RSV-A/IZN45 (Human respiratory syncytial virus A, UniProt P03420).
T2 construct: N-trimer Mimics Synthesized; made in house; host or cells: chemical peptide synthesis
Briefly: SPR binding to RSV-A IZN45 N-trimer mimic. The conditions noted are these: Kd, RSV-A/IZN45.
Source text: as §1, §2

The next assay has as its target IZN45 Full Mut (Human respiratory syncytial virus B, UniProt O36634, A170W/A177W/D194W/G184W/N197K). Conditions: IZN45 Full Mut / IZN45_Mut, SPR.
Source text: as §1, with “method. […]” for “method.”

The next assay deals with RSV. The conditions noted are these: high-risk infants; cited from earlier work.
Where [2] appears, read: running text/figure legend, IZN45 subtype not stated.
Where [3] appears, read: synthesized peptide, KD determined by SPR.
Where [4] appears, read: subsequent trimer/compound made from peptide, SPR.

With enfuvirtide, the “time in which resistance develops” value with HIV is listed as 2-3 weeks.

For the compound “Ac-GECVN(HRG)PEWLLDWCGT-NH2 [SEQ ID NO: 147]”, in assay [1], the “Decreased potency compared to RSVP32” value is 2.6-fold compared and the potency came to 65 nM.

As for `CC(=O)N[C@H](CCCCN)C(=O)NCCOCCOCCOCCOCCOCCOCCC(=O)NCC(=O)N[C@H](C)C(=O)N[C@@H]1CSSC[C@H](C(=O)N[C@H](C)C(=O)N[C@H](C)C(N)=O)NC(=O)[C@@H](Cc2c[nH]c3ccccc23)NC(=O)[C@@H](CC(=O)O)NC(=O)[C@@H](CC(C)C)NC(=O)[C@@H](CC(C)C)NC(=O)[C@@H](Cc2c[nH]c3ccccc23)NC(=O)[C@@H](Cc2c[nH]cn2)NC(=O)[C@H]2CCCN2C(=O)[C@@H](CCC(=O)O)NC(=O)[C@@H](CC(N)=O)NC(=O)[C@@H](CCCNC(=N)N)NC1=O` [Ac-K(PEG6)-RSVP20] (Ac-[dK][PEG6]G[dA][dC][dR][dN][dE][dP][dH][dW][dL][dL][dD][dW][dC][dA][dA]-NH2; disulfide 5-16), the Kd on IZN45 (b401, printed without unit) is 3700 nM; on IZN45 (setting [2]), 3700 nM; on RSV-B/IZN45 (setting [3]) it was 4100 nM; on RSV-A/IZN45 (setting [3]) it was 3700 nM.

“T118: 35-residue RSV C-peptide corresponding to the C-terminal portion of the RSV F ectodomain (FDASISQVNEKINQSLAFIRKSDELLHNVNAGKST)”: in the assay with IZN45 Full Mut, the “binding to mutant control target” value is reported as “did not bind”.

On to “Ac-GECVNQPEWLLDWCGT-NH2 [SEQ ID NO: 151]”, for which, in assay [1], the “Decreased potency compared to RSVP32” value is ~2-fold compared and the potency worked out at 53 nM.

With “Synagis: monoclonal antibody (mAb) given prophylactically throughout RSV season”, the reduction of hospitalizations in the assay with RSV was 55%.

With “I: Ac-[dK][PEG6]G[dA][dC][dR][dN][dE][dP][dH][dW][dL][dL][dD][dW][dC][dA][dA]-NH2 / II: Ac-[dK][PEG6]G[dA][dC][dR][dN][dE][dP][dH][dW][dL][dL][dD][dW][dC][dA][dA]-NH2 / III: Ac-[dK][PEG6]G[dA][dC][dR][dN][dE][dP][dH][dW][dL][dL][dD][dW][dC][dA][dA]-NH2 (linker I:1-II:1-III:1 via X1; disulfide I:5-I:16, II:5-II:16, III:5-III:16; C-terminus assumed) [Ac-K(PEG6)-RSVP20-trimer]”, the Kd on IZN45 (setting [2]) was 0.3 nM; on RSV-B/IZN45 (setting [4]), 1.7 nM; on RSV-A/IZN45 (setting [4]) it was 0.3 nM. Moreover, the “improvement in binding affinity of trimer over the corresponding monomer” value in the assay with IZN45 (trimerization) was 10,000 fold.

Consider GECVNRPEWLLDWCGT [RSVP32], for which the potency in assay [1] was 25 nM.

On to Ac-GEVCRPEWLLDWCGT-NH2 [SEQ ID NO: 159], for which, in assay [1], the “Decreased potency compared to RSVP32” value is on record as 14.4-fold and the potency turned out to be 360 nM.
